According to patent US20220257805A1, “PHARMACEUTICAL FORMULATIONS AND METHODS FOR DELIVERING A THERAPEUTIC, DIAGNOSTIC, OR IMAGING AGENT TO CD206” (Syracuse University, priority 2019, published 2022):
Entries after “also recorded” stand apart in the source; their conditions may differ.

How the values were obtained:
BN16 cells = test: Flow cytometry of cellular association in BN16 cells (CUBN positive, CD206 negative); type: cell-based, Brown Norway rat; conditions: 200 nM, HBSS, 1 h
Method: (§1) Cellular association via the typical holo-IF target receptor, CUBN, was conducted in CUBN positive, CD206 negative (see western blot, FIG. 10) BN16 (Brown Norway rat yolk) cells via flow cytometry using fluorescent B12-Cy5 to show functionalization of the IF-B12 complex in vitro (FIG. 3).
(§2) Flow cytometry: Flow cytometry analyses were carried out on a Becton Dickinson LSRII Cell Analyzer.
(§3) Cell culture: Cell lines J774A.1 (ATCC TIB-67; CD206 positive), CHO-K1 (ATCC CCL-61; control line) and HepG2 (SIGMA 85011430; ASGPR positive) were obtained from the American Type Culture Collection (ATCC). BN16 cells (cubilin positive) were kindly provided by Prof. Pierre Verroust (INSERM, Paris, France). J774A.1 and BN16 cells were cultured as adherent monolayers in DMEM supplemented with 10% FBS and 1% pen/strep (Penicillin-streptomycin solution with 10,000 units penicillin and 10 mg/mL streptomycin in 0.9% NaCl obtained from Thermo Fisher). CHO-K1 were cultured as adherent monolayers in F12-K supplemented with 10% FBS and 1% pen/strep. Cells were incubated at 37° C. with 5% C02. Hank's balanced salt solution (HBSS) was purchased from Sigma. […]
(§4) Flow cytometry measurements of cellular internalization: Cells were plated on a 6-well plate and allowed to adhere for at least 24 h until at least 80% confluency. […] All cells were excited at 640 nm and detected at 660±20 nm.

CHO-K1 cells = test: Flow cytometry of uptake in CHO-K1 cells (CUBN and CD206 free); type: cell-based, Chinese hamster; conditions: 100 nM in HBSS
Method: as §1, §2, §3, §4

HepG2 cells = test: Flow cytometry of uptake in HepG2 cells (ASGPR positive); type: cell-based; conditions: 100 nM in HBSS
Method: as §1, §2, §3, §4

J774A.1 cells = test: Flow cytometry of uptake in J774A.1 macrophage cells (CUBN-, CD206+), with or without mannan block; type: cell-based
Method: Adding mannan (2 mg/mL), 45 minutes prior to, and concomitant with IF-B12-Cy5 incubation, reduced IF-B12-Cy5 uptake (FIG. 3) supporting a mannose receptor mediated process.
as §2
Cell culture: Cell lines J774A.1 (ATCC TIB-67; CD206 positive), CHO-K1 (ATCC CCL-61; control line) and HepG2 (SIGMA 85011430; ASGPR positive) were obtained from the American Type Culture Collection (ATCC). BN16 cells (cubilin positive) were kindly provided by Prof. Pierre Verroust (INSERM, Paris, France). J774A.1 and BN16 cells were cultured as adherent monolayers in DMEM supplemented with 10% FBS and 1% pen/strep (Penicillin-streptomycin solution with 10,000 units penicillin and 10 mg/mL streptomycin in 0.9% NaCl obtained from Thermo Fisher). CHO-K1 were cultured as adherent monolayers in F12-K supplemented with 10% FBS and 1% pen/strep. Cells were incubated at 37° C. with 5% C02. Hank's balanced salt solution (HBSS) was purchased from Sigma. Charcoal stripped fetal bovine serum (FBS) and were purchased from Sigma.
as §4

human gastric IF = molecular target: T1, human gastric IF (Homo sapiens, UniProt P27352); test: IF binding affinity, radiometric chase assay using 57Co-B12; conditions: cold tracer
T1 construct: purchased Xeragenx LLC (St. Louis, Mo., USA); host or cells: Arabidopsis thaliana
Method: To confirm IF binding of ^89Zr-B12, a radiometric chase assay[15] was completed with a ‘cold’ ^91Zr bound to B12 tracer (^91Zr-B12) and compared to free B12, as cyanocobalamin (CN-B12) (FIG. 2). ^91Zr-B12 was made using B12-DFO and chelated to ^91ZrCl4 at pH 7-7.5. IF binding of ^91Zr-B12 was maintained at low nanomolar levels (1.57 nM), similar to CN-B12 control (1.36 nM).
IF binding affinities: To confirm that ^89Zr-B12 will bind to IF, a radiometric chase assay, using ^57Co-B12 was completed (as previously reported)[15] with a cold tracer (^91Zr-B12) and compared to free B12, as cyanocobalamin (CN-B12). Zr-B12 was made using B12-DFO and chelated to ZrCl4 at pH 7.5.

T1 sequence (P27352 19-417): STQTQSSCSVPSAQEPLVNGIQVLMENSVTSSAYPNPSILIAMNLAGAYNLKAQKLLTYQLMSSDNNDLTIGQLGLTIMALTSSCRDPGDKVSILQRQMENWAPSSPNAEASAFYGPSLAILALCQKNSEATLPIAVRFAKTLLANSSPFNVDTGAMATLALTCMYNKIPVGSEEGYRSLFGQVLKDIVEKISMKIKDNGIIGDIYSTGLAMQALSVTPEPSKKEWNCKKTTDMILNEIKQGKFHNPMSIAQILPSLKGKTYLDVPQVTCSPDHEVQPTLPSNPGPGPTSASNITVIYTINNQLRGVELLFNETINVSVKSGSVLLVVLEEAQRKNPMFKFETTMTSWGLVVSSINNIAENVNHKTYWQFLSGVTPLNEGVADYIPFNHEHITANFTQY

Row | Substance | cellular association (flow cytometry) at 4° C. (BN16 cells; 4° C.) | cellular association (flow cytometry) (BN16 cells; 37° C.) | uptake / internalization (flow cytometry) (CHO-K1 cells) | uptake / internalization (flow cytometry) (HepG2 cells) | binding / uptake (flow cytometry) (J774A.1 cells; 200 nM, HBSS, 1 h, 37° C.) | uptake with mannan block (J774A.1 cells; mannan 2 mg/mL 45 minutes prior to and concomitant with incubation) | Kd (human gastric IF)
1 | IF-B12-Cy5: B12-Cy5 bound to recombinant human intrinsic factor (IF-B12 complex) | Reduction in binding (or internalization) | significant association | Neither compound was internalized | not internalized | binding | reduced; also recorded: near complete block in uptake | 
2 | cyanocobalamin [CN-B12] |  |  |  |  |  |  | 1.36 nM
